For orientation: LD50 means the dose expected to kill half of the subjects tested.

Like-named read-outs stand apart in the source and are kept apart here.

The source of these data is patent publication US11007243B2, “Enzyme-assisted supercritical extraction of nigella sativa seeds” (priority 2016, dated 2021).

Data set [1] has as its system Albino Wistar rats injected with Ibotenic acid. The experiment in a line: Open field test in ibotenic acid (I.C.V.) model. Type of data set: in vivo. The settings on record: IBO i.c.v., oral treatment 30 days, FIG. 2b. Here is the method: Ibotenic acid (IBO) is a non-selective glutamate receptor […] which can be used as a powerful neurotoxin to produce anxiety, stress, depression and dementia. It is injected intra cerebro-ventricularly as a brain lesioning agent specially to destroy the neuronal cells in hippocampal and cortical region responsible for fear, anxiety and depression, as well as learning and memory. […] The NMDA subtype of glutamate receptor is an important mediator of synaptic plasticity and plays a central role in the neurobiological mechanisms of emotionality including fear, anxiety and depression, as well as learning and memory (Barkus et al., European Journal of Pharmacology, 2010; 626(1), 49-56).
Ibotenic acid is administered to Albino Wistar rats at the dose of 5 μg/μL/intracerebroventricularly using Hamilton syringe at the rate of 0.1 μL/min. The animals were then treated continuously for 30 days with Black cumin extracts (BCE) orally at various dosages (thymoquinone content) and evaluated for its anxiolytic properties using elevated plus maze and modified open field apparatus. The various black cumin extracts (BCE) dosages evaluated in the study are outlined in Table-3.
The open field test is conventionally designed to assess the state of anxiety, locomotor and exploratory activity. […] Results were statistically analysed by one-way ANOVA followed by Tukey's multiple comparison test.

In data set [2] the test system is IMR-32 cell line. As to the kind of experiment: SRB growth assay on IMR-32 neuronal cell line. The settings on record: Homo sapiens, IMR-32, read-out: GI 50 (concentration causing 50% inhibition of cell growth). Type of data set: cell-based. (The SRB assay estimates cell density from bound dye.)
Data set [3] has as its system U373-MG cell line. The experiment in a line: SRB growth assay on U373 MG glial cell line. The settings on record: Homo sapiens, read-out: GI 50 (concentration causing 50% inhibition of cell growth). The format is cell-based.
The test system of data set [4] is mice. Conditions: cited from earlier work.
For data set [5], the system named is rats. The settings on record: cited from earlier work.
The subject of data set [6] is rabbits. The settings on record: cited from earlier work.
The conditions of data set [7]: Roghani et al. 2012; cited from earlier work.

`CC12CC3CC(C)(C1)CC(N)(C3)C2` [Memantine]: the “Rearing behaviour (rearing frequency), open field” value in data set [1] is “no significant difference between the BCE4 treated group, memantine group and the control group”.
Take `COc1cccc2c1C(=O)c1c(O)c3c(c(O)c1C2=O)C[C@@](O)(C(=O)CO)C[C@@H]3O[C@H]1C[C@H](N)[C@H](O)[C@H](C)O1` [Adriamycin]: the GI50 in data set [2] and in data set [3] was less than 10 µg/mL in each case.
Turning to `CC1=CC(=O)C(C(C)C)=CC1=O` [TQ, 2-isopropyl-5-methyl-1,4-benzoquinone], the LD50 was 104.7 mg/kg in data set [4] (intra-peritoneal injection); 870.9 mg/kg in data set [4] (oral ingestion); 57.5 mg/kg in data set [5] (intra-peritoneal injection); 794.3 mg/kg in data set [5] (oral ingestion); 2400 mg/kg in data set [6]. Moreover, the Memory improvement entry in data set [7] was “memory improvement in a dose dependent manner”.
